Laboratory results from ChEMBL document CHEMBL3244003, “Synthesis and biological activity of several amino analogues of thymidine” (1978).
Active and inactive are the calls of the source. The rule behind the calls is not given here.

Tests used:
[1] = tested on: L1210; assay: Antineoplastic activity against mouse L1210 cells at 1 uM in presence of thymidine relative to compound alone; type: functional
[2] = tested on: L1210; assay: Antineoplastic activity against mouse L1210 cells at 5 uM in presence of deoxyuridine relative to compound alone; type: functional
[3] = tested on: L1210; assay: Antineoplastic activity against mouse L1210 cells at 500 uM; type: functional
[4] = tested on: L1210; assay: Antineoplastic activity against mouse L1210 cells at 1 uM; type: functional
[5] = tested on: L1210; assay: Antineoplastic activity against mouse L1210 cells at 5 uM in presence of deoxycytidine relative to compound alone; type: functional
[6] = tested on: L1210; assay: Antineoplastic activity against mouse L1210 cells at 5 uM in presence of deoxyguanosine relative to compound alone; type: functional
[7] = tested on: L1210; assay: Antineoplastic activity against mouse L1210 cells at 5 uM in presence of deoxyadenosine relative to compound alone; type: functional
[8] = tested on: L1210; assay: Antineoplastic activity against mouse L1210 cells at 50 uM; type: functional
[9] = tested on: L1210; assay: Antineoplastic activity against mouse L1210 cells at 25 uM in presence of deoxyuridine relative to compound alone; type: functional
[10] = tested on: L1210; assay: Antineoplastic activity against mouse L1210 cells at 1 uM in presence of deoxyuridine relative to compound alone; type: functional
[11] = tested on: L1210; assay: Antineoplastic activity against mouse L1210 cells at 25 uM in presence of uridine relative to compound alone; type: functional
[12] = tested on: L1210; assay: Antineoplastic activity against mouse L1210 cells at 3 uM in presence of thymidine relative to compound alone; type: functional
[13] = tested on: L1210; assay: Antineoplastic activity against mouse L1210 cells at 25 uM in presence of cytidine relative to compound alone; type: functional
[14] = tested on: L1210; assay: Antineoplastic activity against mouse L1210 cells at 1 uM in presence of deoxyguanosine relative to compound alone; type: functional
[15] = tested on: L1210; assay: Antineoplastic activity against mouse L1210 cells at 1 uM in presence of uridine relative to compound alone; type: functional
[16] = tested on: L1210; assay: Antineoplastic activity against mouse L1210 cells at 25 uM in presence of deoxyguanosine relative to compound alone; type: functional
[17] = tested on: L1210; assay: Antineoplastic activity against mouse L1210 cells at 1 uM in presence of deoxyadenosine relative to compound alone; type: functional
[18] = tested on: L1210; assay: Antineoplastic activity against mouse L1210 cells at 3 uM; type: functional
[19] = tested on: CCRF S-180; assay: Antineoplastic activity against mouse S180 cells at 250 uM; type: functional
[20] = tested on: L1210; assay: Antineoplastic activity against mouse L1210 cells at 15 uM; type: functional
[21] = tested on: L1210; assay: Antineoplastic activity against mouse L1210 cells at 25 uM in presence of deoxycytidine relative to compound alone; type: functional
[22] = tested on: L1210; assay: Antineoplastic activity against mouse L1210 cells at 1 uM in presence of deoxycytidine relative to compound alone; type: functional
[23] = tested on: L1210; assay: Antineoplastic activity against mouse L1210 cells at 9 uM in presence of thymidine relative to compound alone; type: functional
[24] = tested on: L1210; assay: Antineoplastic activity against mouse L1210 cells at 0.5 uM; type: functional
[25] = tested on: L1210; assay: Antineoplastic activity against mouse L1210 cells at 5 uM in presence of cytidine relative to compound alone; type: functional
[26] = tested on: Human alphaherpesvirus 1; assay: Antiviral activity against HSV1 at 400 uM; type: functional
[27] = tested on: L1210; assay: Antineoplastic activity against mouse L1210 cells at 27 uM in presence of thymidine relative to compound alone; type: functional
[28] = tested on: L1210; assay: Antineoplastic activity against mouse L1210 cells at 25 uM in presence of deoxyadenosine relative to compound alone; type: functional
[29] = tested on: CCRF S-180; assay: Antineoplastic activity against mouse S180 cells at 25 uM; type: functional
[30] = tested on: CCRF S-180; assay: Antineoplastic activity against mouse S180 cells at 50 uM; type: functional
[31] = tested on: CCRF S-180; assay: Antineoplastic activity against mouse S180 cells at 1 uM; type: functional
[32] = tested on: L1210; assay: Antineoplastic activity against mouse L1210 cells at 5 uM in presence of uridine relative to compound alone; type: functional
[33] = tested on: CCRF S-180; assay: Antineoplastic activity against mouse S180 cells at 5 uM; type: functional
[34] = tested on: L1210; assay: Antineoplastic activity against mouse L1210 cells at 25 uM; type: functional
[35] = tested on: L1210; assay: Antineoplastic activity against mouse L1210 cells at 1 uM in presence of cytidine relative to compound alone; type: functional
[36] = tested on: L1210; assay: Antineoplastic activity against mouse L1210 cells at 250 uM; type: functional
[37] = tested on: L1210; assay: Antineoplastic activity against mouse L1210 cells at 400 uM; type: functional, cell-based
[38] = tested on: CCRF S-180; assay: Antineoplastic activity against mouse S180 cells at 400 uM; type: functional, cell-based

In the case of `Cc1cn([C@H]2C[C@H](N)[C@@H](CO)O2)c(=O)[nH]c1=O` [3-AMINO- 3-DEOXYTHYMIDINE], the inhibition at 1 µM [1] is reported as 75.2%, the inhibition at 5 µM [2] is reported as 74% and the inhibition at 500 µM [3] is reported as 95%. The inhibition at 1 µM [4] was 58%, the inhibition at 5 µM [5] was 61% and the inhibition at 5 µM [6] was 86%. For the same molecule, the inhibition at 5 µM [7] was 89%, the inhibition at 50 µM [8] was 92% and the inhibition at 25 µM [9] was 48%. The inhibition at 1 µM [10] was 88%, the inhibition at 25 µM [11] was 95% and the inhibition at 3 µM [12] was 55.2%. It also gave an inhibition at 25 µM [13] of 99%, an inhibition at 1 µM [14] of 87% and an inhibition at 1 µM [15] of 100%. For the same molecule, the inhibition at 25 µM [16] was 102%, the inhibition at 1 µM [17] was 89% and the inhibition at 3 µM [18] was 87%. It also gave an inhibition at 250 µM [19] of 73%, an inhibition at 15 µM [20] of 91% and an inhibition at 25 µM [21] of 28%. The inhibition at 1 µM [22] was 80%, the inhibition at 9 µM [23] was 38.1% and the inhibition at 0.5 µM [24] was 43%. It also gave an inhibition at 5 µM [25] of 100%, an inhibition at 400 µM [26] of 62% and an inhibition at 27 µM [27] of 22.4%. The inhibition at 25 µM [28] was 93%, the inhibition at 25 µM [29] was 68% and the inhibition at 50 µM [30] was 66%. For the same molecule, the inhibition at 1 µM [31] was 37%, the inhibition at 5 µM [32] was 99% and the inhibition at 5 µM [33] was 55%. The inhibition at 25 µM [34] was 88%, the inhibition at 1 µM [35] was 100% and the inhibition at 250 µM [36] was 93%.
In the case of `Cc1cn([C@H]2C[C@H](N)[C@@H](CN)O2)c(=O)[nH]c1=O`, the inhibition [37] is reported as “inactive”, the inhibition [38] is reported as “inactive” and the inhibition [26] is reported as “inactive”.
In the case of `Cc1cn([C@H]2C[C@H](O)[C@@H](CN)O2)c(=O)[nH]c1=O`, the inhibition [37] is reported as “inactive”, the inhibition [38] is reported as “inactive” and the inhibition at 400 µM [26] is reported as 98%.
